From patent EP4755878A1, “PHOTOCHROMIC COMPOUND, PHENOL DERIVATIVE, CURABLE COMPOSITION, OPTICAL ARTICLE, LENS, AND EYEGLASS” (TOKUYAMA CORPORATION, priority 2023, dated 2025)

Key:
[1] = Photochromic properties of photochromic layer (binder sheet) made by binder method; conditions: for Color developing density at 23°C: absorbance difference after 240 seconds irradiation at 23°C; for Color developing density at 35°C: absorbance difference after 240 seconds irradiation at 35°C; for Maximum absorption wavelength: after color development, second absorption wavelength (lower line of pair)
Description: This is the maximum absorption wavelength after color development determined by a spectrophotometer manufactured by Otsuka Electronics Co., Ltd. (instantaneous multichannel photo detector MCPD3000) and was used as an index of a color tone upon color development.
This is a difference between an absorbance {ε(240)} after irradiation with light at the above-mentioned maximum absorption wavelength at 23°C for 240 seconds and an absorbance ε(0) when not irradiated with light, and was used as an index of a color developing density. The higher this value is, the better photochromic property is.
This is a difference between an absorbance {ε(240)} after irradiation with light at first and second absorption wavelengths at 35°C for 240 seconds and an absorbance ε(0) when not irradiated with light, and was used as an index of a color developing density. The higher this value is, the better photochromic property is.
Color developing density at 35°C (A35) /color developing density at 23°C (A23) × 100(%). The higher this value is, the smaller the difference in color developing density between the higher temperature and the lower temperature is, and the smaller the temperature dependence is.
This is the period of time required for the absorbance at a maximum absorption wavelength of a sample to decrease to 1/2 of {ε(240)-ε(0)}, when light irradiation is stopped after the sample had been irradiated with light at 23°C for 240 seconds, and was used as an index of a color fading rate. The shorter this period of time is, the higher the color fading rate is.
A binder sheet was made according to the following method. […] As the first and second optical sheets, polycarbonate sheets with a thickness of 400 µm were used.
Note that the photochromic compound was added to be 0.25 mmol relative to 100 parts by mass of the terminally non-reactive urethaneurea resin.

[2] = Photochromic properties of photochromic cured product made by kneading method; format: physicochemical; conditions: for Maximum absorption wavelength: 1 mm, after color development, second absorption wavelength (lower line of pair); for Color developing density at 23°C: absorbance difference after 240 seconds irradiation at 23°C; for Color developing density at 35°C: absorbance difference after 240 seconds irradiation at 35°C
Text: First, the photochromic compound obtained in Example 1, additives, and polymerizable compounds were mixed to obtain a curable composition. As the polymerizable compounds, a blend of the following polymerizable monomers in combination was used. • 1,3-Bis(isocyanatomethyl)cyclohexane: 36.7 parts by mass Pentaerythritol tetrakis(3-mercaptopropionate): 39.4 parts by mass • Polyoxyethylene polyoxypropylene lauryl ether (WONDERSURF 140 from Aoki Oil Industrial Co., Ltd.): 17.4 parts by mass 1-Decanethiol: 2.8 parts by mass • RX-1 prepared according to the method described in Patent Document 12: 3.8 parts by mass Note that in the curable composition, the photochromic compound was added to be 0.106 mmol taking the total amount of the polymerizable monomers as 100 g.
The following additives were used. Dimethyltin dichloride: 0.05 parts by mass • Irganox 245 from BASF Japan Ltd.: 0.1 parts by mass • 2-Ethylhexyl 4-methoxycinnamate: 0.6 parts by mass
The prepared curable composition was sufficiently degassed, and then injected into a glass mold provided with a gap of 1 mm, and the curable composition was polymerized via casting polymerization. […] After the polymerization, the cured product was removed from the glass mold, to obtain photochromic cured product having a thickness of 1 mm. The resulting photochromic cured product was evaluated in the same manner as in Example 23.
(Examples 51 to 60, and Comparative Examples 11 to 14) Photochromic cured products were formed using the photochromic compound shown in Table 6 in the same manner as in Example 50.

[3] = Photochromic properties of photochromic laminate (plastic lens) made by coating method; format: physicochemical; conditions: for Color developing density at 23°C: absorbance difference after 240 seconds irradiation at 23°C; for Color developing density at 35°C: absorbance difference after 240 seconds irradiation at 35°C; for Maximum absorption wavelength: after color development, second absorption wavelength (lower line of pair)
Text: First, the photochromic compound obtained in Example 1 above, a photoinitiator, and polymerizable compounds were mixed to obtain a curable composition.
As the polymerizable compounds, a blend of the following radically-polymerizable monomers in combination was used.
• Polyethylene glycol dimethacrylate (average molecular weight: 736): 42 parts by mass • Polyethylene glycol dimethacrylate (average molecular weight: 536): 12 parts by mass • Trimethylolpropane trimethacrylate: 38 parts by mass • γ-Methacryloyloxypropyltrimethoxysilane: 2 parts by mass • Glycidyl methacrylate: 1 part by mass.
Note that in the curable composition, the photochromic compound obtained in Example 1 above was added to be 0.25 mmol taking the total amount of the radically-polymerizable monomers as 100 g. The following were used as additives.
(stabilizer, Irganox 245): 1 part by mass Bis(1,2,2,6,6-pentamethyl-4-piperidyl) sebacate: 3 parts by mass Leveling agent from DuPont Toray Specialty Materials K.K. (L7001): 0.1 parts by mass.
Note that the above-mentioned additives are described with blending ratios taking a total of the radically-polymerizable monomers as 100 parts by mass.
Using this curable composition, a photochromic laminate was obtained by a lamination process described below with the polymerization described below being carried out.
First, a thiourethane plastic lens with a center thickness of 2 mm and a refractive index of 1.60 was prepared as an optical substrate. Note that the thiourethane plastic lens had been alkaline-etched beforehand in a 10% aqueous sodium hydroxide solution at 50°C for 5 minutes, and then thoroughly washed with distilled water.
A spin coater (1H-DX2, manufactured by MIKASA CO., LTD) was used to coat a surface of the above-mentioned plastic lens with a moisture-curable primer (product name: TR-SC-P, manufactured by Tokuyama Corporation) at a rotation speed of 70 rpm for 15 seconds, followed by at 1000 rpm for 10 seconds. Then, about 2 g of the photochromic curable composition obtained as above was spin-coated at a rotation speed of 60 rpm for 40 seconds, followed by at 600 rpm for 10 to 20 seconds so as to achieve a photochromic coating layer with a film thickness of 40 µm.
The lens having the surface coated with the photochromic curable composition (photochromic coating layer) was irradiated with light for 90 seconds in a nitrogen gas atmosphere using a metal halide lamp with an output of 200 mW/cm^2 to cure the coating film. The coating was then further heated at 110°C for 1 hour to produce a photochromic laminate with a photochromic layer.
Photochromic laminates were produced using the photochromic compounds obtained in Examples 2 to 19 in the same manner as in Example 20.
Photochromic laminates were obtained in the same manner as in Example 20 using photochromic compounds represented by the following formulas (A) to (F). [drawing 143] [drawing 144] [drawing 145] [drawing 146] [drawing 147] [drawing 148] [drawing 149] [drawing 150]
The resulting photochromic laminates were evaluated by the methods described below.
Table 3 summarizes the results of Examples 20, 32, and 34, and Comparative Examples 1 to 6, and Table 4 summarizes the results of Examples 21 to 31, 33, and 35 to 38. The relationship between the fading half-life at 23°C and the color development ratio at the higher temperature of the photochromic laminates according to Examples and Comparative Examples are shown in a graph in FIG. 1.
Photochromic laminates were formed using the photochromic compound obtained in Examples 61 to 71 in the same manner as in Example 20.

Compound | Color developing density at 23°C ([1]; first absorption wavelength) | Color developing density at 23°C ([1]; second absorption wavelength) | Color developing density at 35°C ([1]; first absorption wavelength) | Color developing density at 35°C ([1]; second absorption wavelength) | Maximum absorption wavelength [1] [nm] | Maximum absorption wavelength [2] [nm] | Color developing density at 23°C ([2]; first absorption wavelength) | Color developing density at 23°C ([2]; second absorption wavelength) | Color developing density at 35°C ([2]; first absorption wavelength) | Color developing density at 35°C ([2]; second absorption wavelength) | Color developing density at 23°C ([3]; first absorption wavelength) | Color developing density at 23°C ([3]; second absorption wavelength) | Color developing density at 35°C ([3]; first absorption wavelength) | Color developing density at 35°C ([3]; second absorption wavelength) | Maximum absorption wavelength [3] [nm]
CCCCOc1ccc(C2(c3ccc(OC)cc3)C=Cc3c4c(c5ccc(C)cc5c3O2)-c2ccc(N3CCOc5ccccc53)cc2C4(CCCC(F)(F)F)CCCC(F)(F)F)cc1 (centres unmarked) [Formula (3-3)] | 0.94 - | 1.34 - | 0.68 - | 1.00 - | 580 | 588 | 0.94 - | 1.36 - | 0.73 - | 1.06 - | 0.91 - | 1.33 - | 0.69 - | 1.02 - | 581
COc1ccc(C2(c3ccc(N4CCOCC4)cc3)C=Cc3c4c(c5ccc(OC)cc5c3O2)-c2ccc(N(C)c3ccccc3)cc2C42CCCCCCC2)cc1 (centres unmarked) [Formula (4-3)] | 0.68 - | 1.16 - | 0.47 - | 0.80 - | 627 | 631 | 0.69 - | 1.17 - | 0.49 - | 0.84 - | 0.68 - | 1.14 - | 0.48 - | 0.81 - | 626
CCCOc1ccc(C2(c3ccc(OC)cc3)C=Cc3c4c(c5cc6c(cc5c3O2)OC(C)(C)S6)-c2ccc(N3CCCc5ccccc53)cc2C4(CCCOC)CCCOC)cc1 (centres unmarked) [Formula (7-4)] | 1.33 - | 0.72 - | 0.89 - | 0.49 - | 622 | 625 | 1.35 - | 0.72 - | 0.95 - | 0.50 - | 1.30 - | 0.71 - | 0.90 - | 0.49 - | 622
CCCC1(CCC)c2cc(N(C)c3ccccc3)ccc2-c2c1c1c(c3cc(OC)c(-c4ccc(N5CC(C)OC(C)C5)cc4)cc23)OC(c2ccc(N3CCOCC3)cc2)(c2ccc(OC)c(OC)c2)C=C1 (centres unmarked) [Formula (71-5)] | – | – | – | – | – | – | – | – | – | – | 1.43 - | 1.36 - | 1.17 - | 1.10 - | 643

Results, then the molecule that gave them:

Color developing density at 23°C ([1]; first absorption wavelength) | Color developing density at 23°C ([1]; second absorption wavelength) | Color developing density at 35°C ([1]; first absorption wavelength) | Color developing density at 35°C ([1]; second absorption wavelength) | Maximum absorption wavelength [1] [nm] | Maximum absorption wavelength [2] [nm] | Color developing density at 23°C ([2]; first absorption wavelength) | Color developing density at 23°C ([2]; second absorption wavelength) | Color developing density at 35°C ([2]; first absorption wavelength) | Color developing density at 35°C ([2]; second absorption wavelength) | Color developing density at 23°C ([3]; first absorption wavelength) | Color developing density at 23°C ([3]; second absorption wavelength) | Color developing density at 35°C ([3]; first absorption wavelength) | Color developing density at 35°C ([3]; second absorption wavelength) | Maximum absorption wavelength [3] [nm] | Compound
0.88 - | 1.08 - | 0.63 - | 0.80 - | 613 | 621 | 0.89 - | 1.09 - | 0.67 - | 0.84 - | 0.86 - | 1.06 - | 0.64 - | 0.81 - | 616 | COc1ccc(C2(c3ccc(OC)cc3)C=Cc3c4c(c5ccc(OC)cc5c3O2)-c2ccc(N(C)c3ccccc3)cc2C4(C)C)cc1 [Formula (1-7)]
1.47 - | 0.85 - | 1.06 - | 0.61 - | 609 | 615 | 1.50 - | 0.86 - | 1.12 - | 0.66 - | 1.43 - | 0.83 - | 1.06 - | 0.62 - | 608 | COCCCCC1(CCCCOC)c2cc(N(C)c3ccccc3)ccc2-c2c1c1c(c3cc(OC)c(OC)cc23)OC(c2ccc(OC)cc2)(c2ccc(OC)cc2)C=C1 [Formula (2-7)]
– | – | – | – | – | – | – | – | – | – | 1.44 - | 1.24 - | 1.16 - | 1.01 - | 621 | CCCCCCC1(CCCCCC)c2cc(N(c3ccccc3)c3ccccc3)ccc2-c2c1c1c(c3cc(OC)c(-c4ccccc4N4CCOCC4)cc23)OC(c2ccc(OC)cc2)(c2ccc(OC)c(F)c2)C=C1 (centres unmarked) [Formula (70-4)]
– | – | – | – | – | – | – | – | – | – | 0.71 - | 0.96 - | 0.46 - | 0.63 - | 579 | COc1ccc(C2(c3ccc(OC)cc3)C=Cc3c4c(c5ccc(OC)cc5c3O2)-c2ccc(Oc3ccccc3)cc2C4(C)C)cc1 [Formula(E), reference compound]
– | – | – | – | – | – | – | – | – | – | 0.62 - | 0.75 - | 0.37 - | 0.45 - | 565 | COc1ccc(C2(c3ccc(OC)cc3)C=Cc3c4c(c5ccc(OC)cc5c3O2)-c2ccc(OC(F)(F)F)cc2C4(C)C)cc1 [Formula(F), reference compound]
